# From patent publication US7598245B2 (Vertex Pharmaceuticals Incorporated, priority 2003, dated 2009)
# Tests used:
# Type in all cases: biochemical
# [1] = biological target: T1, human Src kinase (Homo sapiens, UniProt P12931); test: Src inhibition assay B: spectrophotometric (uv-vis) coupled enzyme assay; details: 100 μM ATP
# T1 construct: 25 nM of recombinant human Src kinase
# Procedure: The compounds are evaluated as inhibitors of human Src kinase using either a radioactivity-based assay or spectrophotometric assay.
# Src Inhibition Assay B: Spectrophotometric Assay
# The ADP produced from ATP by the human recombinant Src kinase-catalyzed phosphorylation of poly Glu-Tyr substrate is quantified using a coupled enzyme assay [Fox et al. Protein Sci. 1998, 7, 2249]. In this assay one molecule of NADH is oxidised to NAD for every molecule of ADP produced in the kinase reaction. The disappearance of NADH is conveniently followed at 340 nm.
# The following are the final concentrations of the assay components: 0.025 M HEPES (pH 7.6), 10 mM MgCl2, 2 mM DTT, 0.25 mg/ml poly Glu-Tyr, and 25 nM of recombinant human Src kinase. Final concentrations of the components of the coupled enzyme system are 2.5 mM phosphoenolpyruvate, 200 μM NADH, 30 μg/ml pyruvate kinase and 10 μg/ml lactate dehydrogenase.
# In a typical assay, all the reaction components with the exception of ATP are pre-mixed and aliquoted into assay plate wells. Inhibitors dissolved in DMSO are added to the wells to give a final DMSO concentration of 2.5%. The assay plate is incubated at 30° C. for 10 min before initiating the reaction with 100 μM ATP. The absorbance change at 340 nm with time, the rate of the reaction, is monitored on a molecular devices plate reader. The data of rate as a function of the inhibitor concentration is fitted to competitive inhibition kinetics model to get the Ki for the compound.
# [2] = biological target: T2, JAK-3 (Homo sapiens, UniProt P52333); test: JAK3 inhibition assay (ELISA, Poly (Glu, Ala, Tyr) coated plates); details: 2 μM ATP
# T2 sequence (P52333 1-1124): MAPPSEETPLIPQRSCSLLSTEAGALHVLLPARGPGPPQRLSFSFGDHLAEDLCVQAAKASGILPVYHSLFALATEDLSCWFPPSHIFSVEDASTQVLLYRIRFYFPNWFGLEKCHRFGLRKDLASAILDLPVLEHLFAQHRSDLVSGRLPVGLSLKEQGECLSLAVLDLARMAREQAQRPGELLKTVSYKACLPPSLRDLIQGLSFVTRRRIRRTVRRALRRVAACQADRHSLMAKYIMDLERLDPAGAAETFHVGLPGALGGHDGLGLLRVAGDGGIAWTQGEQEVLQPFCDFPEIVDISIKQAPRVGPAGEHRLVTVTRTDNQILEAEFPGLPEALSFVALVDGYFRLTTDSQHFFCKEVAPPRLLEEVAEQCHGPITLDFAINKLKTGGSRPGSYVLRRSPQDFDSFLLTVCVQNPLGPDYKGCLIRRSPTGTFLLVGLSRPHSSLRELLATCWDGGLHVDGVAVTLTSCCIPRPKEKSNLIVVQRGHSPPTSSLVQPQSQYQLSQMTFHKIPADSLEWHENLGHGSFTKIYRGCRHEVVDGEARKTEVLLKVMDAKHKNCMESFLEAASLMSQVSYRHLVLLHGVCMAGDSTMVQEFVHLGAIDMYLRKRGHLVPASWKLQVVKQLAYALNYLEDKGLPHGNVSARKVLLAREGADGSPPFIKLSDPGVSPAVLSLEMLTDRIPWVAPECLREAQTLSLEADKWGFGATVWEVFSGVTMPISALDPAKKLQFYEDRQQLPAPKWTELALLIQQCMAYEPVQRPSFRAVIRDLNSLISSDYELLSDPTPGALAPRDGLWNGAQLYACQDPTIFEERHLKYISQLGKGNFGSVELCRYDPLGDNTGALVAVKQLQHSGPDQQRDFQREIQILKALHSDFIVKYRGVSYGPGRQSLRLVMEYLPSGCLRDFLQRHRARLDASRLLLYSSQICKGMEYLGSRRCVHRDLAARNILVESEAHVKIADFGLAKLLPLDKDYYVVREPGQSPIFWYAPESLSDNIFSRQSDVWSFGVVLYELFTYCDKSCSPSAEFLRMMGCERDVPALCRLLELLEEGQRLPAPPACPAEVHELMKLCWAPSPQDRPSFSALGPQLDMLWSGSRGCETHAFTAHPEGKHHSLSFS
# Procedure: Compound inhibition of JAK was assayed by the method described by G. R. Brown, et al, Bioorg. Med. Chem. Lett. 2000, vol. 10, pp 575-579 in the following manner. Into Maxisorb plates, previously coated at 4° C. with Poly (Glu, Ala, Tyr) 6:3:1 then washed with phosphate buffered saline 0.05% and Tween-(PBST), was added 2 μM ATP, 5 mM MgCl2, and a solution of compound in DMSO. The reaction was started with JAK enzyme and the plates incubated for 60 minutes at 30° C. The plates were then washed with PBST, 100 μL HRP-Conjugated 4G10 antibody was added, and the plate incubated for 90 minutes at 30° C. The plate was again washed with PBST, 100 μL TMB solution is added, and the plates were incubated for another 30 minutes at 30° C. Sulfuric acid (100 μL of 1M) was added to stop the reaction and the plate is read at 450 nm to obtain the optical densities for analysis to determine Ki values.
# [3] = biological target: KDR (Homo sapiens, UniProt P35968); test: Inhibition of KDR, coupled enzyme assay; details: 300 μM ATP, 37° C.
# Procedure: Compounds were screened for their ability to inhibit KDR using a standard coupled enzyme assay (Fox et al., Protein Sci., (1998) 7, 2249). Assays were carried out in a mixture of 200 mM HEPES 7.5, 10 mM MgCl2, 25 mM NaCl, 1 mM DTT and 1.5% DMSO. Final substrate concentrations in the assay were 300 μM ATP (Sigma Chemicals) and 10 μM poly E4Y (Sigma). Assays were carried out at 37° C. and 30 nM KDR. Final concentrations of the components of the coupled enzyme system were 2.5 mM phosphoenolpyruvate, 200 μM NADH, 30 μg/ML pyruvate kinase and 10 μg/ml lactate dehydrogenase.
# An assay stock buffer solution was prepared containing all of the reagents listed above, with the exception of ATP and the test compound of interest. 177 μl of the stock solution was placed in a 96 well plate followed by addition of 3 μl of 2 mM DMSO stock containing the test compound (final compound concentration 30 μM). The plate was preincubated for about 10 minutes at 37° C. and the reaction initiated by addition of 20 μl of ATP (final concentration 300 μM). Rates of reaction were obtained using a Molecular Devices plate reader (Sunnyvale, Calif.) over a 5 minute read time at 37° C.
# KDR, sequence (P35968 20-1356): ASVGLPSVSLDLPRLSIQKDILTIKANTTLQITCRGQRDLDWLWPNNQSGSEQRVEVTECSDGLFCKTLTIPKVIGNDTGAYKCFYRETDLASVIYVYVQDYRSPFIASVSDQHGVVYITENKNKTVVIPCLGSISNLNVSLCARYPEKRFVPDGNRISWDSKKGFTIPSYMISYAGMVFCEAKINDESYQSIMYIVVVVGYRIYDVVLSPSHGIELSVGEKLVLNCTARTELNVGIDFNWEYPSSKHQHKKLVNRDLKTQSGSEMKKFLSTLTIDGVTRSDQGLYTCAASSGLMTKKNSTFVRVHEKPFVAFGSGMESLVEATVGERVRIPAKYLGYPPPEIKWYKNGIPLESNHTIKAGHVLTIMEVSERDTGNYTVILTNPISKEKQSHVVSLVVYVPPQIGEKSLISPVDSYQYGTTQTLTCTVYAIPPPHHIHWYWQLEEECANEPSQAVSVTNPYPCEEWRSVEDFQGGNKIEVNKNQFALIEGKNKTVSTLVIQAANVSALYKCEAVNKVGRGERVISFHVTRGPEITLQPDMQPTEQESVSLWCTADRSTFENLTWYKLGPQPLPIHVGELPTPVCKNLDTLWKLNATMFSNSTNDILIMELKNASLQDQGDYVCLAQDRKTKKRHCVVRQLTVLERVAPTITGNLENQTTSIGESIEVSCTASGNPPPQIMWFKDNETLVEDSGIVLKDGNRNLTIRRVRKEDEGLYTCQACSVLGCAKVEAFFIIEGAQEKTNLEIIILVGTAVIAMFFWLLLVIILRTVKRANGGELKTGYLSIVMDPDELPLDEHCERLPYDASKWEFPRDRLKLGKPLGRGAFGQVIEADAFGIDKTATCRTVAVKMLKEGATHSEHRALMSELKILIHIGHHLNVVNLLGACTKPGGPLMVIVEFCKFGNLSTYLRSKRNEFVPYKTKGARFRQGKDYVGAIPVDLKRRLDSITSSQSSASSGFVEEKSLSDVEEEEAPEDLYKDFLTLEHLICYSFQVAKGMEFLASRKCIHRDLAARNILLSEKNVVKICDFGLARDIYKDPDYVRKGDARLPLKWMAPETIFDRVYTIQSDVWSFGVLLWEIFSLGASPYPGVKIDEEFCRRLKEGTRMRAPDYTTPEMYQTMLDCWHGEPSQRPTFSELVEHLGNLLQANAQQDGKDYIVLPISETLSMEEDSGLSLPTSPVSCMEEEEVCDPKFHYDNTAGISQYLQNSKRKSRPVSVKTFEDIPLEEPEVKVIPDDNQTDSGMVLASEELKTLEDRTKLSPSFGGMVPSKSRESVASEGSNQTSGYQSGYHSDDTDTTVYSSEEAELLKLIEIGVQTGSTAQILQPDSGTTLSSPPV
# T1 sequence (P12931 whole entry): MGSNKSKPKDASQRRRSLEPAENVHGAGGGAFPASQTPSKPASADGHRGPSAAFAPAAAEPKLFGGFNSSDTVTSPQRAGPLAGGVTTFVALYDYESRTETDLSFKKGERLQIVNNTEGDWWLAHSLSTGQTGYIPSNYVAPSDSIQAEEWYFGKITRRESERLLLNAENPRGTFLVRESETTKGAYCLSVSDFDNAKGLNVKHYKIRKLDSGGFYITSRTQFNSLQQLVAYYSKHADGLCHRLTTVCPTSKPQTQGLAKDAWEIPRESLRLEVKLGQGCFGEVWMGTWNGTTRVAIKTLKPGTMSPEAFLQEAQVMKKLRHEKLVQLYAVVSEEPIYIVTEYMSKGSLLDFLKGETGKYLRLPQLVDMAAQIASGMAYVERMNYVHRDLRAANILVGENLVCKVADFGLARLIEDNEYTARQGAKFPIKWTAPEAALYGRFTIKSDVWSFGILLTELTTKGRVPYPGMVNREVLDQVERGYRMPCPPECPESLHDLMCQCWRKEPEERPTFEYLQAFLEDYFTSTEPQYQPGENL
Ki [1] [nM],Ki [2] [nM],Ki [3] [nM],SMILES
500 to 1000,10 to 1000,100 to 1000,CC(=O)N1[C@H](C)CN(c2cc(-n3cnc(Nc4ccc(NC(=O)c5cccs5)cc4)n3)ccn2)C[C@@H]1C [Compound I-80]
< 500,10 to 1000,< 100,"CC(=O)N1[C@H](C)CN(c2cc(-n3cnc(Nc4ccc(NC(=O)c5ccco5)cc4)n3)ccn2)C[C@@H]1C [Compound I-81, Furan-2-carboxylic acid (4-{1-[2-(4-acetyl-3,5-dimethyl-piperazin-1-yl)-pyridin-4-yl]-1H-[1,2,4]triazol-3-ylamino}-phenyl)-amide]"
< 500,< 10,< 100,CC(=O)N1[C@H](C)CN(c2cc(-n3cnc(Nc4ccc(N)cc4)n3)ccn2)C[C@@H]1C [Compound I-82]
500 to 1000,> 1000,100 to 1000,O=C(Nc1cc(-n2cnc(Nc3ccccc3)n2)ccn1)C1CCCCC1 [Compound I-93]
< 500,10 to 1000,100 to 1000,"O=C(CC1CCCC1)Nc1cc(-n2cnc(Nc3ccccc3)n2)ccn1 [Compound I-94, 2-Cyclopentyl-N-[4-(3-phenylamino-[1,2,4]triazol-1-yl)-pyridin-2-yl]-acetamide]"
< 500,> 1000,100 to 1000,O=C(CCc1ccccc1)Nc1cc(-n2cnc(Nc3ccccc3)n2)ccn1 [Compound I-95]
< 500,> 1000,100 to 1000,O=C(Cc1ccccc1)Nc1cc(-n2cnc(Nc3ccccc3)n2)ccn1 [Compound I-96]
< 500,> 1000,100 to 1000,CC(C)(C)CC(=O)Nc1cc(-n2cnc(Nc3ccccc3)n2)ccn1 [Compound I-102]
< 500,10 to 1000,100 to 1000,c1ccc(-n2cnc(Nc3ccnc(N4CCOCC4)c3)n2)cc1 [Compound I-105]

# Continued, compound first:
SMILES,Ki [1] [nM],Ki [2] [nM],Ki [3] [nM]
CCOC(=O)c1ccc(Nc2ncn(-c3ccnc(N4CCCN(C(C)=O)CC4)c3)n2)cc1 [Compound I-76],> 1000,10 to 1000,100 to 1000
"CC(=O)N1[C@H](C)CN(c2cc(-n3cnc(Nc4ccc(NC(=O)N(C)C)cc4)n3)ccn2)C[C@@H]1C [Compound I-77, 3-(4-{1-[2-(4-Acetyl-3,5-dimethyl-piperazin-1-yl)-pyridin-4-yl]-1H-[1,2,4]triazol-3-ylamino}-phenyl)-1,1-dimethyl-urea]",500 to 1000,10 to 1000,100 to 1000
COC(=O)Nc1ccc(Nc2ncn(-c3ccnc(N4C[C@@H](C)N(C(C)=O)[C@@H](C)C4)c3)n2)cc1 [Compound I-78],< 500,10 to 1000,< 100
CC(=O)N1[C@H](C)CN(c2cc(-n3cnc(Nc4ccc(NC(=O)C(F)(F)F)cc4)n3)ccn2)C[C@@H]1C [Compound I-79],< 500,< 10,< 100
"CC(=O)N1[C@H](C)CN(c2cc(-n3cnc(Nc4ccc(N5CCOCC5)cc4)n3)ccn2)C[C@@H]1C [Compound I-85, 1-(2,6-Dimethyl-4-{4-[3-(4-morpholin-4-yl-phenylamino)-[1,2,4]triazol-1-yl]-pyridin-2-yl}-piperazin-1-yl)-ethanone]",500 to 1000,10 to 1000,100 to 1000
CCCOC(=O)Nc1ccc(Nc2ncn(-c3ccnc(N4C[C@@H](C)N(C(C)=O)[C@@H](C)C4)c3)n2)cc1 [Compound I-88],< 500,10 to 1000,100 to 1000
CC(=O)N1[C@H](C)CN(c2cc(-n3cnc(Nc4ccc(NC(=O)OC(C)C)cc4)n3)ccn2)C[C@@H]1C [Compound I-89],500 to 1000,10 to 1000,100 to 1000
CC(=O)N1[C@H](C)CN(c2cc(-n3cnc(Nc4ccc(NC(=O)OCC(C)C)cc4)n3)ccn2)C[C@@H]1C [Compound I-90],500 to 1000,10 to 1000,100 to 1000
CC(=O)N1[C@H](C)CN(c2cc(-n3cnc(Nc4ccc(NC(=O)OCC(C)(C)C)cc4)n3)ccn2)C[C@@H]1C [Compound I-91],500 to 1000,10 to 1000,100 to 1000
CC(=O)N1[C@H](C)CN(c2cc(-n3cnc(Nc4ccc(N5CCN(S(=O)(=O)c6ccc(C)cc6)CC5)cc4)n3)ccn2)C[C@@H]1C [Compound I-92],500 to 1000,< 10,< 100
"CC(=O)N1[C@H](C)CN(c2cc(-n3cnc(Nc4ccc(N5CCN(C(=O)OC(C)(C)C)CC5)cc4)n3)ccn2)C[C@@H]1C [Compound I-97, 4-(4-{1-[2-(4-Acetyl-3,5-dimethyl-piperazin-1-yl)-pyridin-4-yl]-1H-[1,2,4]triazol-3-ylamino}-phenyl)-piperazine-1-carboxylic acid tert-butyl ester]",< 500,10 to 1000,< 100
"CCNC(=O)Nc1ccc(Nc2ncn(-c3ccnc(N4C[C@@H](C)N(C(C)=O)[C@@H](C)C4)c3)n2)cc1 [Compound I-98, 1-(4-{1-[2-(4-Acetyl-3,5-dimethyl-piperazin-1-yl)-pyridin-4-yl]-1H-[1,2,4]triazol-3-ylamino}-phenyl)-3-ethyl-urea]",< 500,< 10,< 100
CCCNC(=O)Nc1ccc(Nc2ncn(-c3ccnc(N4C[C@@H](C)N(C(C)=O)[C@@H](C)C4)c3)n2)cc1 [Compound I-99],< 500,10 to 1000,< 100
CC(=O)N1[C@H](C)CN(c2cc(-n3cnc(Nc4ccc(NC(=O)NC(C)C)cc4)n3)ccn2)C[C@@H]1C [Compound I-100],< 500,< 10,< 100
CC(=O)N1[C@H](C)CN(c2cc(-n3cnc(Nc4ccc(NC(=O)NC(C)(C)C)cc4)n3)ccn2)C[C@@H]1C [Compound I-101],500 to 1000,10 to 1000,100 to 1000
